Source: publication PMC4770308, “Discovery of a Chemical Tool Inhibitor Targeting the Bromodomains of TRIM24 and BRPF” (Journal of Medicinal Chemistry, 2015)

How the values were obtained:
TRIM24 bromodomain = molecular target: T1, TRIM24 bromodomain (Homo sapiens, UniProt O15164); assay: AlphaScreen assay, TRIM24 bromodomain; type: binding; conditions: 6-methoxy (R2) analogues
T1 sequence (O15164 899-1004 limits assumed): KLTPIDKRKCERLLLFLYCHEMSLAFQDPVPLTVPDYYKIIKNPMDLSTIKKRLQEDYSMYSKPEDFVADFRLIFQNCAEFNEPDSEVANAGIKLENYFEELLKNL
Experimental: However, the most interesting compounds of this series (3–5) also had 3–4 μM activity against TRIM24, which prompted us to explore this scaffold for the development of TRIM24 inhibitors (Table 1).

[1] = molecular target: T2, PHD/bromodomain of TRIM24 (Homo sapiens, UniProt O15164); assay: Isothermal titration calorimetry, TRIM24; conditions: single binding site model
T2 construct: His6 (N, cleaved yes); SUMO-1 (N, cleaved yes); made in house; host or cells: E. coli BL21(DE3)-R3-pRARE2
T2 sequence (O15164 825-1006): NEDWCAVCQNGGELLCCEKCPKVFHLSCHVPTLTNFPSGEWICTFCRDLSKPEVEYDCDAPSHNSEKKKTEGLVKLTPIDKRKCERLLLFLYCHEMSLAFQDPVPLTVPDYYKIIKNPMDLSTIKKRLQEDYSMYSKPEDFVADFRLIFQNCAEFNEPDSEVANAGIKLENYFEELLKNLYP

BRD1 (BRPF2) bromodomain = molecular target: T3, BRD1 (BRPF2) bromodomain (Homo sapiens, UniProt O95696); assay: Isothermal titration calorimetry, BRD1; conditions: single binding site model
T3 sequence (O95696 562-666 limits assumed): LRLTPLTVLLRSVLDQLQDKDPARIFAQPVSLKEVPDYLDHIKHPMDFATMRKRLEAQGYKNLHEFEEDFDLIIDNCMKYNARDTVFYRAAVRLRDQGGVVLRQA

[2] = test system: panel of diverse cancer cell lines (MCF-7, RKO, MM1S, RCH-ACH, JJN-3); assay: Cytotoxicity assay (CellTiter-Glo), cancer cell line panel; type: cell-based; conditions: 72 hours, 5 x E-05 M to 8 x E-08 M
Experimental: (§1) A more comprehensive evaluation of the role of TRIM24 in cancer cell proliferation and chromatin biology would require the development of a tool compound with improved selectivity.
(§2) Calorimetric experiments were performed on a VPqITC microqcalorimeter (MicroCalTM, LLC Northampton, MA). Protein solutions were buffer exchanged by gel filtration or dialysis into buffer (20 mM Hepes pH 7.5, 150 mM NaCl, and 0.5 mM tris (2qcarboxyethyl) phosphine (TCEP)]. All measurements were carried out at 293.15 K while stirring at 286 rpm. The micro syringe was loaded with a protein solution of 250 µM, the compound solution was prepared at 20 µM and 2mL for the cell. All injections were performed using an initial injection of 2 µl followed by 34 injections of 8 µl with a duration of 16 sec per injection and a spacing of 240 sec between injection. The data were analysed with the MicroCal ORIGIN software package employing a single binding site model. The first data point was excluded from the analysis.
(§3) Thermodynamic parameters were calculated (∆G = ∆H q T∆S = qRTlnKB where ∆G, ∆H and ∆S are the changes in free energy, enthalpy and entropy of binding, respectively).
(§4) Temperature shift assays have been carried out as described in Fedorov et al. 2.
(§5) Fluorescence recovery after photobleaching (FRAP)
(§6) The TRIM24 FRAP assay has been carried out as described in Philpott et al.3. […]

[3] = test system: panel of 45 human bromodomains; assay: Temperature shift assay, bromodomain selectivity panel; type: binding; conditions: 45 bromodomains; ΔTm smaller than 1 degree not considered significant
[4] = molecular target: T4, BRPF1 bromodomain (BRPF1B) (Homo sapiens, UniProt P55201); assay: Isothermal titration calorimetry, BRPF1; conditions: single binding site model
T4 sequence (P55201 628-732 limits assumed): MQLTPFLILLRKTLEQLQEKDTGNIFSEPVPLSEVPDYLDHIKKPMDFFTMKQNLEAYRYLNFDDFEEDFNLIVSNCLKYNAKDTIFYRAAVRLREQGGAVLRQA

[5] = molecular target: T5, triplicated BRPF1B bromodomain construct with nuclear localization signal (Homo sapiens, UniProt P55201); assay: FRAP assay, BRPF1B; type: cell-based; conditions: with SAHA
T5 sequence (P55201 628-732 limits assumed): T4 sequence (P55201 628-732 limits assumed)

[6] = test system: MCF-7 breast cancer cell line; assay: Cytotoxicity assay (CellTiter-Glo), MCF-7; type: cell-based; conditions: 72 hours, concentration range tested
Experimental: as §1, §2, §3, §4, §5, §6

[7] = molecular target: T6, full length TRIM24 fused to GFP (Homo sapiens, UniProt O15164); assay: FRAP assay, TRIM24; type: cell-based; conditions: 1 μM, compared with N980F mutant
T6 sequence (O15164 1-1050): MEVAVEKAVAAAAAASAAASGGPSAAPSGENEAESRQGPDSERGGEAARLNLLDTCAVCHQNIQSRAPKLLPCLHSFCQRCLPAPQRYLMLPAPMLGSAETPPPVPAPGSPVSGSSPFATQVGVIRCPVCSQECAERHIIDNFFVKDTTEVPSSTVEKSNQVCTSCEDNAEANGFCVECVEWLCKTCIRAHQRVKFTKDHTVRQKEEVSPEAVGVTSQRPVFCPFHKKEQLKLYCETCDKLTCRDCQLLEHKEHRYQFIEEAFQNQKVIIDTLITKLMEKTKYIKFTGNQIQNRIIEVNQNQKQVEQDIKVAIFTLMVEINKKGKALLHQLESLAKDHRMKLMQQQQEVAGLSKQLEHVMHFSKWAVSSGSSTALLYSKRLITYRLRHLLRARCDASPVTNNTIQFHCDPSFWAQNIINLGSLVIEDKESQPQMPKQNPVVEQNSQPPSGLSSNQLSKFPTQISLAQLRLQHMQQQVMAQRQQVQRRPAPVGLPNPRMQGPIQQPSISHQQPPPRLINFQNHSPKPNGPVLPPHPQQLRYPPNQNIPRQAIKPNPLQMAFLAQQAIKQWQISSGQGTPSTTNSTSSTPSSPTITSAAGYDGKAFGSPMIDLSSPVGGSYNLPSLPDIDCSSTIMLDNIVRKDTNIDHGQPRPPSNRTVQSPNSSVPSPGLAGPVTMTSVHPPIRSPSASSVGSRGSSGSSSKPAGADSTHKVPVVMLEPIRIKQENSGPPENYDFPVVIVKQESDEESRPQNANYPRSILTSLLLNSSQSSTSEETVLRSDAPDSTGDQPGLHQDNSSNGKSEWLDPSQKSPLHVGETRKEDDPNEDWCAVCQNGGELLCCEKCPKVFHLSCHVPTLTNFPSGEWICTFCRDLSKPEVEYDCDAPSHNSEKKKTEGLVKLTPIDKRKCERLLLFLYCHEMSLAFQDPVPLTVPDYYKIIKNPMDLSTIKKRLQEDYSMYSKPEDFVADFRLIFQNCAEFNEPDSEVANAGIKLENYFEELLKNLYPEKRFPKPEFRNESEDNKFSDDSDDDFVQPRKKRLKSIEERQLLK

For `COc1cc2c(cc1NS(=O)(=O)c1ccc(Br)cc1C)n(C)c(=O)n2C` [Compound 8], the “activity against TRIM24 (in words)” value (TRIM24 bromodomain) was “lost activity against TRIM24”.

In the case of `COc1ccc(Oc2cc3c(cc2NS(=O)(=O)c2ccc(OC)c(OC)c2)n(C)c(=O)n3C)cc1` [Compound 34], the “N (ITC stoichiometry), TRIM24” value [1] is reported as 0.923 ± 0.003, the “N (ITC stoichiometry), BRD1” value (BRD1 (BRPF2) bromodomain) is reported as 1.127 ± 0.02 and the “cytotoxicity in cancer cell lines (in words)” value [2] is reported as “no significant cytotoxicity”. The “selectivity in temperature shift (ΔTm) panel (in words)” value [3] was “excellent selectivity of 34 for BRPF1B/2 and TRIM24”, the “N (ITC stoichiometry), BRPF1B” value [4] was 0.996 ± 0.002 and the “fluorescent recovery time, BRPF1B FRAP (in words)” value [5] was “reduced recovery times”. For the same molecule, the “sensitivity of MCF-7 (in words)” value [6] was “resistant” and the “fluorescent recovery half-time, TRIM24 FRAP (in words)” value [7] was “effectively reduced fluorescent recovery half-time”.
